Where two headings read alike, the source gives them in different places.
Experiments:
PARP1 = PARP1 (Homo sapiens, UniProt P09874); test: PARP1-DNA enzymatic trapping assay; format: biochemical; settings: 10 nM PARP1, 5 nM DNA probe, 2 mM NAD+, fluorescence polarization read at 30 minutes
In short: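 Fluorescence-polarization trapping assay with 10 nM PARP1 and 5 nM fluorescein-labeled DNA probe in 50 mM Tris-HCl pH 8.0, 50 mM NaCl, 1 mM MgCl2. Compounds (top concentration 5 μM) preincubated with enzyme and DNA for 20 min; reaction started with 2 mM NAD+, FP read at 30 min. IC50 from four-parameter fit.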

DLD1 BRCA2−/− cells = test: Cell proliferation assay (DLD1 BRCA2−/−); format: cell-based; settings: Homo sapiens, DLD-1, 168 h, at least 7 days, Cell-Titer Glo, read-out: DLD1 BRCA2−/− anti-proliferation assay
Description: (§1) For PARPi sensitivity, exponentially growing MDA-MB-436 and DLD1 BRCA2^−/− cells were seed in 96 or 384-well plates at very low density with the goal of not splitting for at least 7 days (typically 0.3k-1.2k cells/well). Cells were plated on […] and treated with DMSO or increasing concentrations of PARP1 inhibitors on Day 0. At the end of the experiment, cell viability was estimated using Cell-Titer Glo (Promega).

[1] = Tumor/plasma ratio study in MDA-MB-436 tumor-bearing mouse; format: in vivo; settings: female NOD-SCID mice with MDA-MB-436 tumors, dosed 28 days; for concentration at 24 h: LC-MS/MS
Description: 1×10^7 MDA-MB-436 cells were implanted subcutaneously onto the flank of female NOD-SCID mice (aged 6-8 weeks weighing approximately 18-22 g). When tumors reached approximately 150-180 mm3, the mice were randomly assigned to treatment groups. The mice were continuously dosed with the Compounds for 28 days. On day 29, blood (50 μL) and tumor tissue samples were collected at 24 hours after the last dose. The collected blood samples were then centrifuged at 4600 rpm for 5 minutes at 4° C. to obtain plasma. To determine compound levels in plasma samples, each plasma sample was prepared using an appropriate dilution factor and compared against an 11-point standard calibration curve (1-5,000 ng/mL) prepared in DMSO and spiked into blank plasma. Acetonitrile (200 μL) was added with internal standard into 20 μL plasma samples, followed by centrifugation at 5,500 rpm for 10 minutes. Supernatant (150 μL) was then diluted in water (150 μL) and analyzed via LC-MS/MS. Tumor tissue samples were weighed, and then homogenized with 80% methanol at a ratio of 1:5 or 1:10 (tumor weight in grams to methanol volume in milliliters). Acetonitrile (300 μL) was added with internal standard into 30 μL tumor homogenates sample. The samples were vortexed for 30 s and then centrifuged at 5,500 rpm for 10 min at 4° C. The supernatant (150 μL) was transferred to 96-well plate and diluted with water (150 μL) and analyzed via LC-MS/MS. If a sample concentration in initial assay was not covered in the range of a given standard curve, proper dilution and concentration procedures were used in repeated testing.

PARP2 = PARP2 (Homo sapiens, UniProt Q9UGN5); test: PARP2-FL displacement assay; format: binding; settings: 20 nM PARP2, 3 nM PARPi-FL, 4 hours incubation, fluorescence polarization
PARP2, sequence (Q9UGN5 whole entry): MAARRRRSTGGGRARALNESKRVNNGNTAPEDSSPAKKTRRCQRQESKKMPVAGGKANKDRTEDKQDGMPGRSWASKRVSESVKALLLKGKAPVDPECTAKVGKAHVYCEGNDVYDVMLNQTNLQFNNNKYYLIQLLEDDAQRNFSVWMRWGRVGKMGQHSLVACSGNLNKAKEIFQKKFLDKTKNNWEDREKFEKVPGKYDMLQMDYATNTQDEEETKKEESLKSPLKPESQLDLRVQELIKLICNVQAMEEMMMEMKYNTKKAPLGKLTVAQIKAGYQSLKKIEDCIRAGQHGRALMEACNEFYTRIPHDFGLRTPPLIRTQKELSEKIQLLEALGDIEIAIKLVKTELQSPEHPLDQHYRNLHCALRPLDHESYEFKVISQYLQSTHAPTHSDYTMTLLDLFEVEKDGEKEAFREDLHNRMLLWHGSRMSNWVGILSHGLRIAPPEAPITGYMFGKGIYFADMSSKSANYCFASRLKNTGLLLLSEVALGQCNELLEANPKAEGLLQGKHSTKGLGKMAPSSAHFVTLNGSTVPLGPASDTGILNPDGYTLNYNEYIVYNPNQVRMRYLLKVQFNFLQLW
Description: A potent PARP inhibitor (PARPi-FL, Cat No. 6461, Tocris Bioscience) conjugated to BDY FL fluorophore was adopted to characterize the activity of PARP2 by measuring the displacement of binding of PARPi-FL to PARP2. Compounds to be tested were prepared at a concentration of 1-10 mM, and made a 3-fold serial dilution by 100% DMSO in a polypropylene plate (Bio-One small volume microplate, black, Cat No. 784076, Greiner). 100 nL of test compounds were dispensed into a 384-well polypropylene microplate and added 10 μL of reaction solution including premixed 20 nM PARP2 and 3 nM PARPi-FL. After 4 hours of incubation at room temperature, the fluorescence polarization signal at 480/30 nm excitation and 530/30 nm dual emission was measured by VICTOR Nivo® multimode plate reader (PerkinElmer). All of the measured IC50 values were calculated using four parameters dose-response inhibition model in GraphPad Prism 8.0.2 (La Jolla, California, USA, www.graphpad.com).

MDA-MB-436 cells = test: Cell proliferation assay (MDA-MB-436); format: cell-based; settings: Homo sapiens, MDA-MB-436, 168 h, at least 7 days, Cell-Titer Glo, read-out: MDA-MB-436 anti-proliferation assay
Description: as §1

PARP1, sequence (P09874 whole entry): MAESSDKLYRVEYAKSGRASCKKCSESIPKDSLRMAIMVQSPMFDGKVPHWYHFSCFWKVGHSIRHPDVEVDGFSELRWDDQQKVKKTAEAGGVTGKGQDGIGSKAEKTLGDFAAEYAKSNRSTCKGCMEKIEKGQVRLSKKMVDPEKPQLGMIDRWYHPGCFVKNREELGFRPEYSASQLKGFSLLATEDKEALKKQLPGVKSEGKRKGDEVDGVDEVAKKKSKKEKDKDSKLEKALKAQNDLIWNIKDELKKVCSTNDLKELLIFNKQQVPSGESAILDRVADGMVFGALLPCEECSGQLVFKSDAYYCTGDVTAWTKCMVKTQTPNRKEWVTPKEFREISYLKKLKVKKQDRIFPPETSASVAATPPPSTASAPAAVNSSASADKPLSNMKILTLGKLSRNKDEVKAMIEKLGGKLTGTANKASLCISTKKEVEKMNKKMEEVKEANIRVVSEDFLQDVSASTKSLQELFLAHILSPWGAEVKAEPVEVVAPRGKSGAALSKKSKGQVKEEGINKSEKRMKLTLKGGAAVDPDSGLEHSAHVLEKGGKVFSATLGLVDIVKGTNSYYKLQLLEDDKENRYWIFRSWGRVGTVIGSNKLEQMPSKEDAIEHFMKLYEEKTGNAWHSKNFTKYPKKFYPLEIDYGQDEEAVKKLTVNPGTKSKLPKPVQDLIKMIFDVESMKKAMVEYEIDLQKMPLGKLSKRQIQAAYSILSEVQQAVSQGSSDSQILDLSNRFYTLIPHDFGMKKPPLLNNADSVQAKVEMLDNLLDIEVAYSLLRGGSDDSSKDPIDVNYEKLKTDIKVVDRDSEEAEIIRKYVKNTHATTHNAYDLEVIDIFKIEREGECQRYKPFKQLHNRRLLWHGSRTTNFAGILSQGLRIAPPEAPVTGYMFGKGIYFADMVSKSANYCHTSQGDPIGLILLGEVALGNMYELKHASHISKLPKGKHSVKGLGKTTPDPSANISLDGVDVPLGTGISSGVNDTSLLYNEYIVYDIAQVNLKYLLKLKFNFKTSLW

IC50 (PARP1): 8.29 nM
IC50 (DLD1 BRCA2−/− cells): 1.09 nM
concentration at 24 h ([1]; tumor tissue 24 hours after the last dose, read-out: Tumor): 206 ng/g
concentration at 24 h ([1]; plasma, sample 24 hours after the last dose, read-out: Plasma): 3.2 ng/mL
Kp at 24 h ([1]; tumor/plasma, 24 hours after the last dose): 64
IC50 (PARP2): 1040 nM
IC50 (MDA-MB-436 cells): 0.27 nM
Structure (SMILES): CO[C@H]1C[C@@H](NC(=O)c2ccc(N3C[C@H]4CN(Cc5cnc6c7c(c(=O)[nH]c6c5)COCC7)C[C@@H]4C3)c(F)n2)C1 [Compound 73]
